Test results as given in article PMC11653257, “Organometallic Half-Sandwich Complexes of 8-Hydroxyquinoline-Derived Mannich Bases with Enhanced Solubility: Targeting Multidrug Resistant Cancer” (Inorganic Chemistry, 2024).
≈ marks a conversion by molar mass, not a printed value. Where two headings read alike, the source gives them in different places.

Legend:
[1] = pKa of the ligands by 1H NMR titration; assay type: physicochemical; conditions: 0.20 M KNO3 with 10% (v/v) D2O, I = 0.20 M KNO3, 25.0 °C, read-out: pKa (OH)
Method: Physico-chemical properties such as aqueous solubility, lipophilicity, and the actual protonation state at a given pH are known to influence the pharmacokinetic behavior of a drug.
Bruker Avance III HD Ascend 500 Plus instrument (Billerica, MA, USA) was used for NMR studies. ^1H NMR spectroscopic measurements were carried out with a WATERGATE water suppression pulse scheme in the presence of 10% (v/v) D2O in most cases. DSS internal standard was added to samples to obtain reference peaks. ^1H NMR titrations were carried out in the presence of 0.20 M KNO3. The computer program HypSpec[64] was used to obtain equilibrium constants.

[2] = Thermodynamic aqueous solubility at pH 7.4; assay type: physicochemical; conditions: 10 mM HEPES buffer, thermodynamic from solid, pH 7.4 (10 mM HEPES), 25.0 °C, read-out: thermodynamic aqueous solubility S7.4
Method: The concentration of the compounds was determined by UV–vis spectrophotometry. For calibration, stock solutions of the compounds were used with known concentrations dissolved in 100% DMSO, 75% DMSO, and 50% (v/v) DMSO/buffered aqueous solutions.

Colo320 = assay: Cytotoxicity, Colo320; assay type: cell-based, human; conditions: this work
Excerpt: Supplementary Information
(11 pictures or pasted objects on this page, not shown here)

MES-SA/Dx5 = conditions: monoculture, ref SI3, cited from earlier work
A431 = tested on: A431; design: method as in earlier work; conditions: monoculture, 72 h, PrestoBlue; ref SI3; cited from earlier work
A431-B1 = tested on: A431-B1; design: method as in earlier work; conditions: monoculture, ref SI3, cited from earlier work
[3] = pKa of in situ prepared complexes by pH-potentiometry; assay type: physicochemical; conditions: I = 0.20 M KNO3
Excerpt: The results, shown in Table 2, indicate good agreement between the data obtained by the different methods. It should be noted that these processes show overlap in all cases, and therefore, the assignment of the pKa values to the given moieties cannot be made reliably. However, by comparing the spectral changes with those observed for HQ and other simple derivatives,[25] it can be concluded that the lower pKa likely belongs to the deprotonation of the aqua coligand.
The pH-potentiometric measurements were carried out at 25.0 ± 0.1 °C in water in the pH range between 2.0 and 11.5 and at a constant ionic strength of 0.20 M KNO3. The titrations were performed in a carbonate-free KOH solution (0.20 M). The exact concentrations of the HNO3 and KOH solutions were determined by pH-potentiometric titrations. An Orion 710A pH-meter equipped with a Metrohm combined electrode (type 6.0234.100) and a Metrohm 665 Dosimat buret were used for this purpose. […] The average water ionization constant, pKw, was determined as 13.76 ± 0.01, which is in good agreement with the literature data.[67] The initial volume of the samples was 10.0 mL. […] Samples were degassed by bubbling purified argon through them for about 10 min prior to the measurements, and the inert gas was also passed over the solutions during the titrations. The computer program Hyperquad2013[64] was utilized to establish the stoichiometry of the species and to calculate the equilibrium constants.

[4] = H2O/Cl– coligand exchange by UV–vis titration with chloride ions; assay type: physicochemical; conditions: RhCp* complexes titrated at pH 7.4
Method: When the isolated complexes (1–4) are dissolved in water, their chlorido coligand can be replaced by water, or vice versa in the aqua complexes [M(arene)(HL)(H2O)]^2+, the H2O → Cl^– exchange process can take place in the presence of chloride ions. The chloride ion affinity of the complexes was also investigated by UV–vis spectrophotometry. RhCp* and RuCym complexes were titrated with chloride ions at pH 7.4 and 6.0, respectively. For this experiment, pH values were chosen at which the formation of the mixed hydroxido species is negligible. A representative spectrum series for complex (4) is shown in Figure S27, and the calculated conditional exchange constants (logK’ (H2O/Cl^–)) are given in Table 2 and in Figure S23. […] The complexes of the amino acid hybrids HQCl-D-Pro and HQCl-D-hPro have lower logK’ (H2O/Cl^–) constants most likely due to the repulsive effect of the nearby COO^– group.[26]

[5] = Ligand displacement with 2,2′-bipyridine, conditional formation constant; assay type: physicochemical; conditions: pH 7.4; bpy competitor; UV–vis
Excerpt: These pKa (H2O) values are lower than those of the complexes formed with the corresponding amino acid hybrids (HQCl-D-Pro, HQCl-D-hPro, Figure S23). Thus, the predominant complex at pH 7.4 is [M(arene)(HL)(H2O)]^2+ in all cases, in which the bidentate ligand coordinates via the (N,O^–) donor set and the pyridinium or pyrrolidinium nitrogens are protonated just like in the isolated complexes (Chart 3). Based on the unchanged spectra (vide supra), these types of complexes show no dissociation at pH = 2, indicating their high stability and hindering the direct determination of the formation constants. Therefore, a ligand displacement experiment was performed using UV–vis spectrophotometry with 2,2′-bipyridine (bpy) as a competitor to determine conditional formation constants at pH = 7.4 (Figure S25). […] Nevertheless, these values indicate a high stability of the complexes in solution, and <1% of dissociation is estimated at 1 μM concentration at pH = 7.4. The ligand displacement measurement could not be applied to the RuCym complexes due to the release of the p-cymene ring followed by the formation of the mixed ligand complex with bpy and oxidation of the metal center (Figure S26), similarly to analogue complexes.[14],[26],[27]

Compound | pKa [1] | solubility thermodynamic [2] [µM] | SR (Colo205 / Colo320) (Colo320) | IC50 (MES-SA/Dx5; PrestoBlue) [nM] | SR (MES-SA / MES-SA/Dx5) (MES-SA/Dx5; + 1 µM TQ) | SR (MES-SA / MES-SA/Dx5) (MES-SA/Dx5) | IC50 (A431) [nM] | IC50 (A431-B1; 72 h, PrestoBlue) [nM] | SR (A431 / A431-B1) (A431-B1) | pKa (H2O) [3] | pKa (Npyr/pipH+) [3] | logK’ (H2O/Cl–) [4] | logK’ [M(arene)L]7.4 conditional formation constant [5]
Oc1c(CN2CCCCC2)cc(Cl)c2cccnc12 [HQCl-pip, 5-chloro-7-(piperidin-1-ylmethyl)quinolin-8-ol] | 7.43 ± 0.02 | 254 ± 3 (≈ 70.3 µg/mL) | 2.4 | 290 ± 50 | 1.31 | 8.71 | 6670 ± 1690 | 1690 ± 270 | 3.96 | – | – | – | –
[RhCp*(HQCl-Pip)Cl]Cl [(3)] | – | – | – | – | – | – | – | – | – | 9.39 ± 0.07 | 10.41 ± 0.10 | 2.21 ± 0.03 | 11.89 ± 0.03
